# Experimental data from patent publication US20200385406A1 (priority 2017, published 2020).
# Read-outs that look alike come from different tables or passages of the source.
# Legend:
# [1] = system: HIV-1 NL4-3; assay: HIV-1 infectivity assay in TZM-bl reporter cells; format: cell-based; conditions: for inhibition at 3 µM: Human immunodeficiency virus 1, NL43, TZM-bl, read-out: % Inhibition of HIV-1 Infectivity at 3 μM relative to ΔNef
# Protocol: The antiretroviral activity of Nef inhibitor analogs was assessed using the reporter cell line, TZM-bl, which are HeLa cells engineered to express CD4, HIV-1 co-receptors, as well as an HIV-1 LTR-luciferase reporter gene. TZM-bl cells (2.5×10^4) were plated in 96-well plates and allowed to adhere overnight prior to infection. Adherent cells and HIV-1NL4-3 (typically 5,000 pg p24/ml) were then incubated separately with compounds for 3 h and combined in a final volume of 200 μl in each well. Following incubation for 48 h at 37° C., the cells were lysed in 50 μl luciferase cell culture lysis reagent (Promega). Lysates (40 μl) were then transferred to white 96-well plates followed by 50 μl injections of luciferase reagent per well (Promega). Luminescence was then recorded with a delay time of 2 s and an integration period of 10 s. Cytotoxicity of each compound in the absence of HIV-1 was evaluated in TZM-bl cells using the CellTiter-Blue cell viability assay (Promega).
# [2] = molecular target: SIV Nef-mac239 (Simian immunodeficiency virus, UniProt Q5QGG3); assay: SPR binding to recombinant purified Nef protein
# Protocol: (§1) Interaction of inhibitor analogs with recombinant purified Nef proteins was performed using an SPR-based binding assay on a Reichert 4-channel SPR instrument. Full-length recombinant Nef proteins (HIV-1 Nef-SF2, HIV-1 Nef NL4-3 and SIV Nef-mac239) were expressed in E. coli and purified via N-terminal His-6 tags, ion-exchange chromatography, and gel filtration. Purity and identity of the Nef proteins was confirmed by SDS-PAGE and mass spectrometry. For SPR, Nef proteins were immobilized on carboxymethyl dextran biosensor chips (Reichert) in HBS-EP running buffer (10 mM HEPES, pH 7.4, 150 mM NaCl, 3 mM EDTA, 0.05% v/v Surfactant P20). Test compounds were injected in triplicate over a range of concentrations (typically 0.1 to 30 μM) at a rate of 10 μL/min for one min until equilibrium was reached, followed by dissociation in HBS-EP for 2 min. Kinetic rate constants were calculated from reference-corrected sensorgrams using the TraceDrawer software package (Reichert), and were best fit via 1:1 Langmuir or 2-step induced-fit binding models. Some initial SPR experiments were performed on a BIAcore T100 instrument (GE Healthcare) using four-channel CM5 biosensor chips, and ligand-protein interactions were best-fit using the BIAevaluations software (version 2.0.4).
# [3] = molecular target: T1, HIV-1 Nef NL4-3 (Human immunodeficiency virus type 1 group M subtype B, UniProt P03406, A33V/T15A/T51N/V11I); assay: SPR binding to recombinant purified Nef protein
# T1 construct: Full-length recombinant Nef proteins (HIV-1 Nef-SF2, HIV-1 Nef NL4-3 and SIV Nef-mac239) were expressed in E. coli; His-6 (N); made in house; host or cells: E. coli
# Protocol: as §1
# [4] = molecular target: T2, HIV-1 Nef-SF2 (Human immunodeficiency virus type 1 group M subtype B, UniProt P03407); assay: SPR binding to recombinant purified Nef protein
# T2 construct: Full-length recombinant Nef proteins (HIV-1 Nef-SF2, HIV-1 Nef NL4-3 and SIV Nef-mac239) were expressed in E. coli; His-6 (N); made in house; host or cells: E. coli
# Protocol: as §1
# [5] = HIV-1 Nef-SF2, KD, Reichert 4-Channel instrument, N/I = No Interaction up to 1 μM
# [6] = HIV-1 Nef-SF2, KD, Biacore T100 instrument
# [7] = SPR, Reichert 4-Channel instrument, N/I = No Interaction up to 1 μM
# [8] = Reichert 4-Channel instrument, N/I = No Interaction up to 1 μM
Compound,inhibition at 3 µM [1],Kd [2],Kd [3],"Kd [4, 5]","Kd [4, 6]",other results
"O=C(c1cc(-n2sc3ncccc3c2=O)ccc1Cl)N1CCCC1 [Compound 12, 2-(4-chloro-3-(pyrrolidine-1-carbonyl)phenyl)isothiazolo[5,4-b]pyridin-3(2H)-one]",100%,3660 nM,960 nM,1710 nM,–,–
"Cc1ccc(-n2sc3ncccc3c2=O)cc1S(=O)(=O)N1CCCC1 [Compound 6, 2-(4-methyl-3-(pyrrolidin-1-ylsulfonyl)phenyl)isothiazolo[5,4-b]pyridin-3(2H)-one]",28%,1600 nM,8660 nM,2400 nM,–,–
"O=C(c1cc(-n2sc3ncccc3c2=O)ccc1Cl)N1CCOCC1 [Compound 5, 2-(4-chloro-3-(morpholine-4-carbonyl)phenyl)isothiazolo[5,4-b]pyridin-3(2H)-one]",99%,1510 nM,7330 nM,2240 nM,162 nM,–
"O=C(c1cc(N2Cc3ncccc3C2=O)ccc1Cl)N1CCOCC1 [Compound 17, 6-(4-chloro-3-(morpholine-4-carbonyl)phenyl)-6,7-dihydro-5H-pyrrolo[3,4-b]pyridin-5-one]",16%,–,–,–,–,"SIV Nef-mac239, KD [2, 7]: N/I; HIV-1 Nef-NL43, KD [3, 7]: N/I; HIV-1 Nef-SF2, KD [4, 8]: N/I"
"Cc1ccc2c(=O)n(-c3ccc(C)c(S(=O)(=O)N4CCCC4)c3)sc2n1 [Compound 4, 6-methyl-2-(4-methyl-3-(pyrrolidin-1-ylsulfonyl)phenyl)isothiazolo[5,4-b]pyridin-3(2H)-one]",32%,–,–,–,260 nM,–
"O=C(Nc1ccc(Cl)cc1)c1cc(-n2sc3ncccc3c2=O)ccc1Cl [Compound 7, 2-chloro-N-(4-chlorophenyl)-5-(3-oxoisothiazolo[5,4-b]pyridin-2(3H)-yl)benzamide]",58%,280 nM,190 nM,–,120 nM,"SIV Nef-mac239, KD [2, 7]: N/I; HIV-1 Nef-NL43, KD [3, 7]: N/I; HIV-1 Nef-SF2, KD [4, 8]: N/I"
"CC1(C)CN(C(=O)c2cc(-n3sc4ncccc4c3=O)ccc2Cl)CCO1 [Compound 11, 2-(4-chloro-3-(2,2-dimethylmorpholine-4-carbonyl)phenyl)isothiazolo[5,4-b]pyridin-3(2H)-one]",89%,1690 nM,210 nM,220 nM,–,–
"O=C(c1ccc(-n2sc3ncccc3c2=O)cc1)N1CCCC1 [Compound 9, 2-(4-(pyrrolidine-1-carbonyl)phenyl)isothiazolo[5,4-b]pyridin-3(2H)-one]",38%,–,40 nM,–,–,–
"2-(2-methyl-5-(morpholine-4-carbonyl)phenyl)isothiazolo[5,4-b]pyridin-3(2H)-one [Compound 15]",–,–,–,–,–,"% Inhibition of HIV-1 Infectivity at 3 μM relative to ΔNef ([1]; 3 μM, TZM-bl reporter cells infected with HIV-1 NL4-3): 81%; Kd ([2]; SPR, Reichert 4-Channel instrument, N/I = No Interaction up to 1 μM, read-out: SIV Nef-mac239, KD): 1280 nM; Kd ([3]; SPR, Reichert 4-Channel instrument, N/I = No Interaction up to 1 μM, read-out: HIV-1 Nef-NL43, KD): 140 nM; Kd ([4]; Reichert 4-Channel instrument, N/I = No Interaction up to 1 μM, read-out: HIV-1 Nef-SF2, KD): 390 nM"
"Cc1ccc2c(=O)n(-c3ccc(Cl)c(C(=O)N4CCOCC4)c3)sc2n1 [Compound 3, 2-(4-chloro-3-(morpholine-4-carbonyl)phenyl)-6-methylisothiazolo[5,4-b]pyridin-3(2H)-one]",23%,–,–,–,870 nM,–
"O=C(c1cc(-n2sc3ncccc3c2=O)ccc1Cl)N1CCCCC1 [Compound 14, 2-(4-chloro-3-(piperidine-1-carbonyl)phenyl)isothiazolo[5,4-b]pyridin-3(2H)-one]",82%,3110 nM,1760 nM,1400 nM,–,–
"O=C(c1cc(-n2sc3nc(C(F)(F)F)ccc3c2=O)ccc1Cl)N1CCOCC1 [Compound 8, 2-(4-chloro-3-(morpholine-4-carbonyl)phenyl)-6-(trifluoromethyl)isothiazolo[5,4-b]pyridin-3(2H)-one]",71%,780 nM,310 nM,2340 nM,110 nM,"SIV Nef-mac239, KD [2, 7]: N/I; HIV-1 Nef-NL43, KD [3, 7]: N/I"
"CC1CN(C(=O)c2cc(-n3sc4ncccc4c3=O)ccc2Cl)CC(C)O1 (stereo not drawn) [Compound 13, 2-(4-chloro-3-(2,6-dimethylmorpholine-4-carbonyl)phenyl)isothiazolo[5,4-b]pyridin-3(2H)-one]",100%,1410 nM,590 nM,380 nM,–,–
"Cc1ccc2c(=O)n(-c3ccc(F)c(C(=O)N4CCOCC4)c3)sc2n1 [Compound 2, 2-(4-fluoro-3-(morpholine-4-carbonyl)phenyl)-6-methylisothiazolo[5,4-b]pyridin-3(2H)-one]",52%,–,–,–,500 nM,–
O=C(c1cc(-n2sc3ncccc3c2=O)ccc1Cl)N1CCC(F)(F)CC1 [Compound 16],60%,21100 nM,56200 nM,9390 nM,–,–
"O=C(c1cc(-n2sc3ncccc3c2=O)ccc1F)N1CCOCC1 [Compound 1, 2-(4-fluoro-3-(morpholine-4-carbonyl)phenyl)isothiazolo[5,4-b]pyridin-3(2H)-one]",84%,–,–,–,1030 nM,–
"O=C(c1cccc(-n2sc3ncccc3c2=O)c1)N1CCOCC1 [Compound 10, 2-(3-(morpholine-4-carbonyl)phenyl)isothiazolo[5,4-b]pyridin-3(2H)-one]",88%,–,250 nM,–,–,–
